The record followed here is PMC8175490, “Validation of mathematical model with phosphate activation effect by batch (R)-phenylacetylcarbinol biotransformation process utilizing Candida tropicalis pyruvate decarboxylase in phosphate buffer” (Scientific Reports, 2021).

The experiment deals with T1, partially purified C. tropicalis TISTR 5350 pyruvate decarboxylase (PDC) (Candida tropicalis, UniProt C5MDS4).
T1 construct: gene CTRG_03826
In words: global fit of six-ODE model to batch PAC biotransformation progress curves (HPLC, enzymatic pyruvate assay). Format: biochemical. The settings on record: carboligation with benzaldehyde (30/36 and 100/120 mM benzaldehyde/pyruvate); 250 mM phosphate pH 7.0, 4 °C, 1 mM TPP, 1 mM MgSO4; partially purified enzyme; model-fitted affinity constant; sigmoidal. The text has this:
global fit of six-ODE model to batch PAC biotransformation progress curves (HPLC, enzymatic pyruvate assay) on partially purified C. tropicalis TISTR 5350 pyruvate decarboxylase (PDC)

T1 sequence (C5MDS4 entry or part of it): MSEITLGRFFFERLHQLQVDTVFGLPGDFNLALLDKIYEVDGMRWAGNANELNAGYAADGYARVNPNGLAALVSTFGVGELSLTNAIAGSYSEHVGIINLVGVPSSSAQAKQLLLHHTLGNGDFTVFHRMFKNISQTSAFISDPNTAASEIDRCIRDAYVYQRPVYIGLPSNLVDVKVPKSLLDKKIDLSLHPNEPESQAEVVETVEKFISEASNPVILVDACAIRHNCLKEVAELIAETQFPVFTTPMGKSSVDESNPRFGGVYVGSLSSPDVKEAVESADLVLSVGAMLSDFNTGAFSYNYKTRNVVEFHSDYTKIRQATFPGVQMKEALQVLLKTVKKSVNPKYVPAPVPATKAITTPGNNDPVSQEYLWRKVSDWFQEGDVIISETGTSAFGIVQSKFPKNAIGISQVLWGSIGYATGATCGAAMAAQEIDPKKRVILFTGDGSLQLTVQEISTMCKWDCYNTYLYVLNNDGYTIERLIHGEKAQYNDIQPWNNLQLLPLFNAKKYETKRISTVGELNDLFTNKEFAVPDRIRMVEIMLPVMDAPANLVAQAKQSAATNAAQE

For the molecule `O=Cc1ccccc1` [B, benzaldehyde], the Optimized values entry is “(1.01 ± 0.02) × 10^–4 mM^1−h”.
